Source: patent US20240092936A1, “METHODS OF TREATING HER2 POSITIVE BREAST CANCER WITH TUCATINIB IN COMBINATION WITH CAPECITABINE AND TRASTUZUMAB” (Seagen Inc., priority 2019, published 2024)
“Also recorded” adds a separate entry of the source. Read-outs that look alike come from different tables or passages of the source.

Experiments:
[1] = cited from earlier work
[2] = tested on: patients on tucatinib studies; assay: Safety observations in earlier tucatinib studies (e.g. ONT-380-005); type: in vivo, human; conditions: patients taking tucatinib alone or in combination
Text: Trastuzumab and other HER2-targeted therapies were known to increase the risk of the development of asymptomatic and symptomatic declines in LVEF. […] Cardiac function was therefore monitored closely.
Monitoring of liver function tests was required for any patient taking tucatinib.
Patients with brain metastases were at risk for occurrence of AEs due to the presence of CNS lesions, progression of disease and toxicities potentially related to study treatment. On occasion, treatment of brain metastases with systemic or radiation therapy had been associated with localized edema thought to be due to treatment effect and not tumor progression. […] The patient's symptoms responded rapidly and completely to systemic corticosteroids. It was not known if this patient's symptoms were due to local progression or treatment-related toxicity. […] The patient was taken for surgical resection, and found to have no viable tumor. The resected lesion was thought to represent treatment-related necrosis.

[3] = Table 11, strong inhibitors or inducers of CYP3A4
[4] = Table 10, strong inhibitors and inducer of CYP2C8

For `COc1ccc([C@@H]2Sc3ccccc3N(CCN(C)C)C(=O)[C@@H]2OC(C)=O)cc1` [Diltiazem], the “Elimination Half-life” value [1, 3] is given as 3 to 4 h.
In the case of `C[C@@H](c1ncncc1F)[C@](O)(Cn1cncn1)c1ccc(F)cc1F` [Voriconazole], the “Elimination Half-life (hours)” value [1, 3] is given as “Dose dependent”.
In the case of `COc1cc(Cc2cnc(N)nc2N)cc(OC)c1OC` [Trimethoprim], the “Elimination Half-life” value [1, 4] is listed as 8 to 12 h.
In the case of `NC(=O)N1c2ccccc2C=Cc2ccccc21` [Carbamazepine], the “Elimination Half-life” value ([1]; Table 11, repeat dose) is listed as 12 to 17 h (repeat dose) and the “Elimination Half-life (hours)” value ([1]; Table 11, single dose) is listed as 25-65 hours (single does),.
For Troleanomycin, the “Elimination Half-life” value [1, 3] is listed as 2 h.
For `CC[C@@H]([C@H](C)O)n1ncn(-c2ccc(N3CCN(c4ccc(OC[C@@H]5CO[C@@](Cn6cncn6)(c6ccc(F)cc6F)C5)cc4)CC3)cc2)c1=O` [Posoconazole], the “Elimination Half-life” value [1, 3] is listed as 27 to 35 h.
For `CC[C@H]1OC(=O)[C@H](C)[C@@H](O[C@H]2C[C@@](C)(OC)[C@@H](O)[C@H](C)O2)[C@H](C)[C@@H](O[C@@H]2O[C@H](C)C[C@H](N(C)C)[C@H]2O)[C@](C)(OC)C[C@@H](C)C(=O)[C@H](C)[C@@H](O)[C@]1(C)O` [Clarithromycin], the “Elimination Half-life” value [1, 3] is given as 3 to 7 h.
With `Cc1cc(Nc2ncnc3ccc(NC4=NC(C)(C)CO4)cc23)ccc1Oc1ccn2ncnc2c1` [tucatinib] the “Adverse findings reported in earlier tucatinib studies” value [2] was “rare reports of asymptomatic cardiac failure; also recorded: Grade 3 and 4 elevation of LFTs had been seen in some patients”.
For `O=C1NC(=O)C(c2ccccc2)(c2ccccc2)N1` [Phenytoin], the “Elimination Half-life” value [1, 3] is given as 7 to 42 h.
For `CCc1nn(CCCN2CCN(c3cccc(Cl)c3)CC2)c(=O)n1CCOc1ccccc1` [Nefazodone], the “Elimination Half-life” value [1, 3] is given as 2 to 4 h.
In the case of `CC(C)(O)c1ccccc1CC[C@@H](SCC1(CC(=O)O)CC1)c1cccc(/C=C/c2ccc3ccc(Cl)cc3n2)c1` [Montelukast], the “Elimination Half-life” value [1, 4] is listed as 3 to 6 h.
In the case of `COC(=O)[C@H](c1ccccc1Cl)N1CCc2sccc2C1` [Clopidogrel], the “Elimination Half-life” value [1, 4] is given as 6 h.
In the case of `Cc1ccc(C)c(OCCCC(C)(C)C(=O)O)c1` [Gemfibrozil], the “Elimination Half-life” value [1, 4] is given as 1 to 2 h.
In the case of `CC(=O)N1CCN(c2ccc(OCC3COC(Cn4ccnc4)(c4ccc(Cl)cc4Cl)O3)cc2)CC1` (centres unmarked) [Ketoconazole (systemic), Ketoconazole], the “Elimination Half-life” value [1, 3] is given as 2 to 8 h.
For `CCC(C)n1ncn(-c2ccc(N3CCN(c4ccc(OCC5COC(Cn6cncn6)(c6ccc(Cl)cc6Cl)O5)cc4)CC3)cc2)c1=O` (centres unmarked) [Itraconazole], the “Elimination Half-life” value ([1]; Table 11, repeat dose) is listed as 34 to 42 h (repeat dose) and the “Elimination Half-life (hours)” value ([1]; Table 11, single dose) is listed as 16-28 hours (single dose),.
